The values that follow come from patent US20030113321A1, “Novel G-protein-coupled receptor protein and its DNA” (priority 2000, published 2003).

What all share (type): cell-based
Assay [1] has as its target T1, TGR4 (Homo sapiens, UniProt Q9H1C0). Nature of the assay: Reporter gene (CRE-luciferase) expression level in cells with transient TGR4 expression. The arrangement: expressed in transfected cells; host or cells: CHO-mock cells (CHO(dhfr-) transformed with pAKKO-111H), transiently transfected with pAK-TGR4, pAK-Gi and pCRE-Luc. The settings on record: TGR4 gene-transfected CHO-mock cells (co-transfected with pAK-Gi and pCRE-Luc), 4 hours, FIG. 4. The source says:
TGR4 cDNA or inhibitory G protein α subunit Gi cDNA was inserted into the animal cell expression vector plasmid pAKKO-111H (the plasmid vector identical to the pAKKO-1.11H described in Biochim. Biophys. Acta, Hinuma, S., et al., 1219, 251-259, 1994) by publicly known methods. The expression vector plasmids pAK-TGR4 and pAK-Gi thus produced and pAKKO-111H without any particular gene inserted were transfected to CHO cells by the following procedures.
First, using these vectors, Escherichia coli JM109 was transformed; after the colony obtained was isolated and incubated, a plasmid was prepared using QIAGEN Plasmid Maxi Kit (Qiagen, Inc.). […]
Geranylgeranyl diphosphate (GGPP, Sigma, Inc.), farnesyl diphosphate (FPP, Sigma, Inc.) and lysophosphatidic acid (LPA, Sigma, Inc.) were diluted in the assay buffer, respectively, and each dilution was added to the transfected CHO-mock cells described above in a concentration of 1, 0.1 and 0.01 μM, followed by incubation at 37° C. for 4 hours under 5% CO2. The culture supernatant was discarded and 50 μl of a substrate for assaying an luciferase activity or PicaGene LT 2.0 (Toyo Ink Mfg. Co., Ltd.) was added, and the luminescence amount of luciferase was assayed by using a plate reader (ARVO sx multi-label counter, Walac, Inc.).

Assay [2] addresses T1, TGR4. Nature of the assay: Intracellular calcium ion mobilization activity in TGR4-expressed CHO cells (FLIPR). The arrangement: expressed in transfected cells; host or cells: CHO cells stably expressing TGR4 (CHO-TGR4). The conditions noted are these: 2.5 μM; CHO-TGR4 compared with CHO-mock cells; about 3 minutes after addition; FIGS. 5 and 6. The method, then:
Using the plasmids for TGR4 expression prepared in EXAMPLE 3, CHO-TGR4 as CHO cells for stable TGR4 expression was prepared by a publicly known method. CHO-mock cells with neither CHO-TGR4 nor receptor gene introduced were plated in a 96-well black plate (Costar, Inc.) with the clear bottom in a concentration of 3000 cells/well, and cultured overnight at 37° C. under 5% CO2. The culture solution was used for assay. A wash buffer was prepared by adding 20 mM HEPES, pH 7.4 and 2.5 mM probenecid (Sigma, Inc.) to Hank's balanced salt solution (HBSS, Gibco BRL, Inc.). As a sample buffer, the wash buffer supplemented with 0.1% bovine serum albumin (BSA, Sigma, Inc.) was used. As a dye loading solution there was used a mixture prepared by adding 1% FBS, 4 μM Fluo 3-AM (Wako Pure Chemical Industry Co., Ltd.) and 0.04% Pluronic acid (Molecular Probes, Inc.) to the wash buffer. The medium of the cells was discarded and the dye loading solution was added. After incubation at 37° C. for an hour, the cells were washed with the wash buffer using a plate washer. The cells were set on Fluorometric Imaging Plate Reader (FLIPR, Molecular Devices, Inc.) and a change of the intracellular calcium ion level was measured for about 3 minutes after addition of the sample. As the sample, FPP or LPA was added in a concentration of 2.5 μM.

Assay [3] deals with T1, TGR4. Put plainly: Intracellular cAMP production amount in TGR4-expressed CHO cells. The arrangement: expressed in transfected cells; host or cells: CHO cells stably expressing TGR4 (CHO-TGR4). The conditions noted are these: 2 μM; CHO-TGR4 compared with CHO-mock cells; 30 minutes at 37° C.; n is 3; FIGS. 7 and 8. The method, then: CHO-mock cells with neither CHO-TGR4 nor receptor gene introduced, which were prepared in EXAMPLE 4, were plated in a 96-well plate (Beckton-Dickinson, Inc.) in 25,000 cells/well, followed by incubation overnight at 37° C. under 5% CO2. This culture solution was used for assay. A sample buffer used was HBSS supplemented with 0.1% BSA and 0.2 mM I BMX (Sigma, Inc.). The cells were washed twice with the sample buffer and pre-incubated at 37° C. for 30 minutes. The cells were further washed twice and the sample was added thereto followed by incubation at 37° C. for 30 minutes. The sample was added in 2 μM of farnesyl diphosphate or lysophosphatidic acid. After incubation in the presence of the sample, the amount of intracellular cAMP production was assayed by using cAMP Screen System (ABI).

T1 sequence (Q9H1C0 whole entry): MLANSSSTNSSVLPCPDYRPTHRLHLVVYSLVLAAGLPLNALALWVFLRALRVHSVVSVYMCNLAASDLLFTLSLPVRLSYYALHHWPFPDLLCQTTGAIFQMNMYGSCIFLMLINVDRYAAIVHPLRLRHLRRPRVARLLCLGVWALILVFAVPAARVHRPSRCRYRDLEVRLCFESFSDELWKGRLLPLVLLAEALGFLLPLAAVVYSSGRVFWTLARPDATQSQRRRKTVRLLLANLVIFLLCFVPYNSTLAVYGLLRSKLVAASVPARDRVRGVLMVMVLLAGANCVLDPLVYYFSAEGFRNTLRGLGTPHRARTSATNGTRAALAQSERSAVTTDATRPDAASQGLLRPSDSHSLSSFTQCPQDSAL

As for `CC(C)=CCC/C(C)=C/CC/C(C)=C/CC/C(C)=C/COP(=O)(O)OP(=O)(O)O` [GGPP, Geranylgeranyl diphosphate], the luciferase activity result in assay [1] (1 and 0.1 μM) is reported as “increased luciferase activity”.

In the case of lysophosphatidic acid [LPA], in assay [1] (1 μM), the luciferase activity result is “increased luciferase activity”. In addition, the “intracellular calcium ion mobilization activity” value in assay [2] was “increased specifically to CHO-TRG4”. The “amount of intracellular cAMP production” value in assay [3] was “increased specifically to CHO-TRG4”.
